Experimental data taken from US9040545B2, “Heterocyclyl pyrazolopyrimidine analogues as selective JAK inhibitors” (Cellzome Limited, priority 2010, dated 2015).

Target: T1, Aurora A (Homo sapiens, UniProt O14965)
T1 construct: cell lysates from Jurkat cells (ATCC TIB-152) used; endogenous in cells; host or cells: Jurkat cells (ATCC TIB-152), treated with pervanadate
T1 sequence (O14965 1-403): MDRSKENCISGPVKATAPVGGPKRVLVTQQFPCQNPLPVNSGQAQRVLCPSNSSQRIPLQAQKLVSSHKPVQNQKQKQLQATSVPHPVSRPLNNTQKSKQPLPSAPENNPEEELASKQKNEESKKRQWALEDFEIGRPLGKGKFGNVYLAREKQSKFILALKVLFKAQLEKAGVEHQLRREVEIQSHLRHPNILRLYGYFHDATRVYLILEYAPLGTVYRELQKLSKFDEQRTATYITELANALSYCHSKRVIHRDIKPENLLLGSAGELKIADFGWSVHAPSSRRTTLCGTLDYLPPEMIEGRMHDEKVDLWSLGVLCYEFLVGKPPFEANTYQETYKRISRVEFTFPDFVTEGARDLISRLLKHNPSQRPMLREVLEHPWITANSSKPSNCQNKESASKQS
Assay: Kinobeads assay, Aurora A
Format: binding
Conditions: for IC50: lysate of pervanadate-treated Jurkat cells, read-out: Inhibition values (IC50) Aur A
Procedure: The compounds of the present invention as described in the previous examples were tested in a Kinobeads™ assay as described for ZAP-70 (WO-A 2007/137867). Briefly, test compounds (at various concentrations) and the affinity matrix with the immobilized aminopyrido-pyrimidine ligand 24 were added to cell lysate aliquots and allowed to bind to the proteins in the lysate sample. After the incubation time the beads with captured proteins were separated from the lysate. Bound proteins were then eluted and the presence of JAK2 and JAK3 was detected and quantified using specific antibodies in a dot blot procedure and the Odyssey infrared detection system. Dose response curves for individual kinases were generated and IC50 values calculated. Kinobeads™ assays for ZAP-70 (WO-A 2007/137867) and for kinase selectivity profiling (WO-A 2006/134056) have been previously described.
The affinity matrix was washed two times with 15 mL of 1×DP buffer containing 0.2% NP40 (IGEPAL® CA-630, Sigma, #I3021) and then resuspended in 1×DP buffer containing 0.2% NP40 (3% beads slurry).
5×DP buffer 250 mM Tris-HCl pH 7.4, 25% Glycerol, 7.5 mM MgCl2, 750 mM NaCl, 5 mM Na3VO4; filter the 5×DP buffer through a 0.22 μm filter and store in aliquots at −80° C. The 5×DP buffer is diluted with H2O to 1×DP buffer containing 1 mM DTT and 25 mM NaF.
Stock solutions of test compounds were prepared in DMSO. In a 96 well plate 30 μL solution of diluted test compounds at 5 mM in DMSO were prepared. Starting with this solution a 1:3 dilution series (9 steps) was prepared. For control experiments (no test compound) a buffer containing 2% DMSO was used.
Cell lysate (approximately 50 mg protein per plate) was thawed in a water bath at room temperature and then stored on ice. To the thawed cell lysate 1×DP 0.8% NP40 buffer containing protease inhibitors (1 tablet for 25 mL buffer; EDTA-free protease inhibitor cocktail; Roche Diagnostics 1873580) was added in order to reach a final protein concentration of 10 mg/mL total protein. The diluted cell lysate was stored on ice. Mixed Molt4/Ramos lysate was prepared by combining one volume of Molt4 lysate and two volumes of Ramos lysate (ratio 1:2).
To a 96 well filter plate (Multiscreen HTS, BV Filter Plates, Millipore #MSBVN1250) were added per well: 100 μL affinity matrix (3% beads slurry), 3 μL of compound solution, and 50 μL of diluted lysate. Plates were sealed and incubated for 3 hours in a cold room on a plate shaker (Heidolph tiramax 1000) at 750 rpm. Afterwards the plate was washed 3 times with 230 μL washing buffer (1×DP 0.4% NP40). The filter plate was placed on top of a collection 1 plate (Greiner bio-one, PP-microplate 96 well V-shape, 65120) and the beads were then eluted with 20 μL of sample buffer (100 mM Tris, pH 7.4, 4% SDS, 0.00025% bromophenol blue, 20% glycerol, 50 mM DTT). The eluate was frozen quickly at −80° C. and stored at −20° C.
The kinases in the eluates were detected and quantified by spotting on nitrocellulose membranes and using a first antibody directed against the kinase of interest and a fluorescently labelled secondary antibody (anti-rabbit IRDye™ antibody 800 (Licor, #926-32211). The Odyssey Infrared Imaging system from LI-COR Biosciences (Lincoln, Nebr., USA) was operated according to instructions provided by the manufacturer (Schutz-Geschwendener et al, 2004. Quantitative, two-color Western blot detection with infrared fluorescence. Published May 2004 by LI-COR Biosciences, www.licor.com).
After spotting of the eluates the nitrocellulose membrane (BioTrace NT; PALL, #BTNT30R) was first blocked by incubation with Odyssey blocking buffer (LICOR, 927-40000) for 1 hour at room temperature. Blocked membranes were then incubated for 16 hours at the temperature shown in Table 5 with the first antibody diluted in Odyssey blocking buffer (LICOR #927-40000). Afterwards the membrane was washed twice for 10 minutes with PBS buffer containing 0.2% Tween 20 at room temperature. […]

Structure (SMILES)	JAK3/AurA Fold Selectivity	IC50
OCCn1cc(Nc2ncc3cnn(Cc4cccc(N5CCOCC5)c4F)c3n2)cn1 [Example 39, 2-(4-((1-(2-Fluoro-3-morpholinobenzyl)-1H-pyrazolo[3,4-d]pyrimidin-6-yl)amino)-1H-pyrazol-1-yl)ethanol]	10-50 Fold	100 to 1000 nM
CN(C)CC1(Cn2cc(Nc3ncc4cnn(Cc5cccc(N6CCOCC6)c5)c4n3)cn2)COC1 [Example 31, N-(1-((3-((Dimethylamino)methyl)oxetan-3-yl)methyl)-1H-pyrazol-4-yl)-1-(3-morpholinobenzyl)-1H-pyrazolo[3,4-d]pyrimidin-6-amine]	3-10 Fold	100 to 1000 nM
OCCn1cc(Nc2ncc3cnn(Cc4cccc(N5CCOCC5)c4)c3n2)cn1 [Example 5, 2-(4-((1-(3-Morpholinobenzyl)-1H-pyrazolo[3,4-d]pyrimidin-6-yl)amino)-1H-pyrazol-1-yl)ethanol]	10-50 Fold	100 to 1000 nM
OCCn1cc(Nc2ncc3cnn(Cc4cc(F)cc(N5CCNCC5)c4)c3n2)cn1 [Example 93, 2-(4-((1-(3-fluoro-5-(piperazin-1-yl)benzyl)-1H-pyrazolo[3,4-d]pyrimidin-6-yl)amino)-1H-pyrazol-1-yl)ethanol]	10-50 Fold	100 to 1000 nM
Cn1cc(Nc2ncc3cnn(Cc4cccc(N5CCOCC5=O)c4F)c3n2)cn1 [Example 40, 4-(2-Fluoro-3-((6-((1-methyl-1H-pyrazol-4-yl)amino)-1H-pyrazolo[3,4-d]pyrimidin-1-yl)methyl)phenyl)morpholin-3-one]	10-50 Fold	100 to 1000 nM
Cn1cc(Nc2ncc3cnn(Cc4cc(F)cc(N5CCNCC5)c4)c3n2)cn1 [Example 92, 1-(3-fluoro-5-(piperazin-1-yl)benzyl)-N-(1-methyl-1H-pyrazol-4-yl)-1H-pyrazolo[3,4-d]pyrimidin-6-amine]	10-50 Fold	100 to 1000 nM
CN(C)CCCn1cc(Nc2ncc3cnn(Cc4cccc(N5CCOCC5=O)c4)c3n2)cn1 [Example 28, 4-(3-((6-((1-(3-(Dimethylamino)propyl)-1H-pyrazol-4-yl)amino)-1H-pyrazolo[3,4-d]pyrimidin-1-yl)methyl)phenyl)morpholin-3-one]	>50 Fold	100 to 1000 nM
Cn1cc(Nc2ncc3cnn(Cc4cccc(N5CCOCC5)c4F)c3n2)cn1 [Example 21, 1-(2-Fluoro-3-morpholinobenzyl)-N-(1-methyl-1H-pyrazol-4-yl)-1H-pyrazolo[3,4-d]pyrimidin-6-amine]	>50 Fold	100 to 1000 nM
Cn1cc(Nc2ncc3cnn(Cc4cccc(N5CCOCC5)c4)c3n2)cn1 [Example 2, N-(1-Methyl-1H-pyrazol-4-yl)-1-(3-morpholinobenzyl)-1H-pyrazolo[3,4-d]pyrimidin-6-amine]	10-50 Fold	100 to 1000 nM
Cn1cc(Nc2ncc3cnn(Cc4cccc(C(=O)N5CCOCC5)c4)c3n2)cn1 [Example 6, (3-((6-((1-Methyl-1H-pyrazol-4-yl)amino)-1H-pyrazolo[3,4-d]pyrimidin-1-yl)methyl)phenyl)(morpholino)methanone]	10-50 Fold	100 to 1000 nM

Results, then the compound that gave them:

JAK3/AurA Fold Selectivity	IC50	Structure (SMILES)
10-50 Fold	100 to 1000 nM	Cn1cc(-c2cccc(Cn3ncc4cnc(Nc5cnn(CCO)c5)nc43)c2)cn1 [Example 122, 2-(4-((1-(3-(1-methyl-1H-pyrazol-4-yl)benzyl)-1H-pyrazolo[3,4-d]pyrimidin-6-yl)amino)-1H-pyrazol-1-yl)ethanol]
10-50 Fold	100 to 1000 nM	Cn1cc(-c2cccc(Cn3ncc4cnc(Nc5cnn(CCO)c5)nc43)c2F)cn1 [Example 124, 2-(4-((1-(2-fluoro-3-(1-methyl-1H-pyrazol-4-yl)benzyl)-1H-pyrazolo[3,4-d]pyrimidin-6-yl)amino)-1H-pyrazol-1-yl)ethanol]
10-50 Fold	1000 to 10000 nM	Cn1cc(Nc2ncc3cnn(Cc4cccc(-c5cnn(C)c5)c4F)c3n2)cn1 [Example 123, 1-(2-fluoro-3-(1-methyl-1H-pyrazol-4-yl)benzyl)-N-(1-methyl-1H-pyrazol-4-yl)-1H-pyrazolo[3,4-d]pyrimidin-6-amine]
3-10 Fold	100 to 1000 nM	Cn1cc(Nc2ncc3cnn(Cc4cccc(N5CCC(=O)CC5)c4)c3n2)cn1 [Example 108, 1-(3-((6-((1-methyl-1H-pyrazol-4-yl)amino)-1H-pyrazolo[3,4-d]pyrimidin-1-yl)methyl)phenyl)piperidin-4-one]
10-50 Fold	100 to 1000 nM	Cn1cc(Nc2ncc3cnn(Cc4cccc(-c5cnn(CC(N)=O)c5)c4)c3n2)cn1 [Example 120, 2-(4-(3-((6-((1-methyl-1H-pyrazol-4-yl)amino)-1H-pyrazolo[3,4-d]pyrimidin-1-yl)methyl)phenyl)-1H-pyrazol-1-yl)acetamide]
10-50 Fold	100 to 1000 nM	Cn1cc(Nc2ncc3cnn(Cc4cccc(-c5cnn(C)c5)c4)c3n2)cn1 [Example 115, N-(1-methyl-1H-pyrazol-4-yl)-1-(3-(1-methyl-1H-pyrazol-4-yl)benzyl)-1H-pyrazolo[3,4-d]pyrimidin-6-amine]
3-10 Fold	< 100 nM	O=C(Cn1cc(Nc2ncc3cnn(Cc4cc(F)cc(N5CCOCC5=O)c4)c3n2)cn1)N1CCNCC1 [Example 109, 4-(3-fluoro-5-((6-((1-(2-oxo-2-(piperazin-1-yl)ethyl)-1H-pyrazol-4-yl)amino)-1H-pyrazolo[3,4-d]pyrimidin-1-yl)methyl)phenyl)morpholin-3-one]
10-50 Fold	< 100 nM	O=C1COCCN1c1cc(F)cc(Cn2ncc3cnc(Nc4cnn(CC5CCNC5)c4)nc32)c1 (stereo not shown) [Example 101, 4-(3-fluoro-5-((6-((1-(pyrrolidin-3-ylmethyl)-1H-pyrazol-4-yl)amino)-1H-pyrazolo[3,4-d]pyrimidin-1-yl)methyl)phenyl)morpholin-3-one]
10-50 Fold	100 to 1000 nM	C[C@H]1COCCN1c1cccc(Cn2ncc3cnc(Nc4cnn(C)c4)nc32)c1 [Example 112, (S)-N-(1-methyl-1H-pyrazol-4-yl)-1-(3-(3-methylmorpholino)benzyl)-1H-pyrazolo[3,4-d]pyrimidin-6-amine]
10-50 Fold	100 to 1000 nM	O=C1CC(Cn2cc(Nc3ncc4cnn(Cc5cc(F)cc(N6CCOCC6=O)c5)c4n3)cn2)CN1 (stereo not shown) [Example 105, 4-(3-fluoro-5-((6-((1-((5-oxopyrrolidin-3-yl)methyl)-1H-pyrazol-4-yl)amino)-1H-pyrazolo[3,4-d]pyrimidin-1-yl)methyl)phenyl)morpholin-3-one]
